The values that follow are results of earlier work, collected in patent US20180177198A1, “PEDICULICIDE FORMULATION BASED ON EUCALYPTUS GLOBULUS ESSENTIAL OIL” (UNIVERSIDAD DE CONCEPCION, priority 2015, published 2018).

Test in series [1]: not given
This is another data set of the same source.

Another series deals with pediculosis. The note with it: in vivo.
Series [2] deals with Pediculus humanus capitis resistant to permethrin.

As to `CC1=CCC2CC1C2(C)C` (stereo not drawn) [(−) α-pinene], the “pediculicidal effectiveness compared with phenothrin or pyrethrum” value in the series on lice is reported as “as effective as”.
`CC1=CC[C@@H](C(C)(C)O)CC1` [1-α-terpineol]: the “pediculicidal effectiveness compared with phenothrin or pyrethrum” value with lice is on record as “as effective as”.
On to `Cl[C@H]1[C@H](Cl)[C@@H](Cl)[C@@H](Cl)[C@H](Cl)[C@H]1Cl` [Lindane, gamma benzene hexachloride], for which the “toxicity range, can be lethal” value (adults) was 28 g. Moreover, the “dose causing respiratory depression” value (children below the age of 4, at 1%) was 5 mL. Further, in series [1] (in vivo), the “average life in the blood stream” value was 24 h. In addition, the “absorbed by passage into the blood stream” value in series [1] (topical use) was “Approximately 10%”. The ovicidal activity result with P. capitis is “lacks ovicidal activity”.
Regarding `CC12CCC(CC1)C(C)(C)O2` [1.8-cineol], the “pediculicidal effectiveness compared with phenothrin or pyrethrum” value in the series with lice was “as effective as”.
`CC1=CC=C(C(C)C)CC1` [α-terpinene]: the “pediculicidal effectiveness compared with phenothrin or pyrethrum” value in the series on lice is reported as “as effective as”.
Take `c1ccc([C@H]2CN3CCSC3=N2)cc1` [Levamisol]: the “effectiveness in treatment of pediculosis” value in the series with pediculosis is given as 19%.
As for I-phellandrene, the “pediculicidal effectiveness compared with phenothrin or pyrethrum” value with lice is listed as “as effective as”.
As to α-dodelactone, the repellent activity result in series [2] is “significant repellent activity”.
Consider `c1ccc2[nH]c(-c3cscn3)nc2c1` [Thiabendazole], for which the “average life (elimination after percutaneous absorption)” value in series [1] (in vivo) is 70 min.
Turning to `C=C1C(O)CC2CC1C2(C)C` (centres unmarked) [(E)-pinocarveol], the “pediculicidal effectiveness compared with phenothrin or pyrethrum” value with lice was “as effective as”.
